Key:
Mus musculus = assay: Antinociceptive potency in mice using the tail-flick test on icv administration.; assay type: functional
[1] = target: Kappa-type opioid receptor (Cavia porcellus, UniProt P41144); assay: selective binding affinity against kappa opioid receptor, using [3H]U-69593 as radioligand
Mu-type opioid receptor = Mu-type opioid receptor (Cavia porcellus, UniProt P97266); assay: selective binding affinity against mu opioid receptor, using [3H]DAMGO as radioligand
Chain of Mu-type opioid receptor (P97266 whole entry): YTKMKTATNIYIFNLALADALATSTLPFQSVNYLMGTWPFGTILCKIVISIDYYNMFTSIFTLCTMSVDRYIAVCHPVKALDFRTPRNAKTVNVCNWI

Chain of Kappa-type opioid receptor (P41144 whole entry): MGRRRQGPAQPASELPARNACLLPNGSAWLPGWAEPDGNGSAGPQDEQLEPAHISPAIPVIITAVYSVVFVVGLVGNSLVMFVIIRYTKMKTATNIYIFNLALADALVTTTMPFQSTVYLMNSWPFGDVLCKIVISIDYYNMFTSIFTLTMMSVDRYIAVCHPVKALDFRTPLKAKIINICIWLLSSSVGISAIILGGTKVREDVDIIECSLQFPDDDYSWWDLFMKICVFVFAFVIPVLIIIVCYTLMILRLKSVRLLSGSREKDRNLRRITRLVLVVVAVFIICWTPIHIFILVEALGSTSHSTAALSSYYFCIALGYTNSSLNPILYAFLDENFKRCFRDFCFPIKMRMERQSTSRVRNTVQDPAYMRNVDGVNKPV

Structure (SMILES) | ED50 (Mus musculus) | Ki [1] | Ki (Mu-type opioid receptor)
CC1(C)SSC(C)(C)[C@@H](NC(=O)[C@@H](N)Cc2ccc(O)cc2)C(=O)NCC(=O)N[C@@H](Cc2ccccc2)C(=O)N[C@H]1C(=O)O | 11.5 nM mouse-1 | – | –
CN1CC[C@]23c4c5ccc(O)c4O[C@H]2C(=O)C2(Cc4ccccc4C2)C[C@@]3(O)[C@H]1C5 [SPIROINDANYLOXYMORPHONE] | 1.7 nM mouse-1 | 0.588 µM | 0.0106 µM
